# Laboratory results as given in publication PMC6749521, “The Effect of Flavonoid Aglycones on the CYP1A2, CYP2A6, CYP2C8 and CYP2D6 Enzymes Activity” (Molecules, 2019).
# Like-named read-outs stand apart in the source and are kept apart here.
# What was measured:
# CYP3A4 = test system: CYP3A4; parameters: method as in PMID 30301254; details: statistical significance p < 0.1; cited from earlier work
# CYP2A6 [1] = target: T1, CYP2A6 (Homo sapiens, UniProt P11509); assay: CYP2A6 enzyme activity, coumarin 7-hydroxylation (MDI, TDI, DI assays), recombinant baculosomes; details: for Inhibition of CYP2A6 enzyme activity / activity at 30 min, 1 µM: 1 µM flavonoid; for activity at 30 min, 1 µM: human, pH 7.4, probe coumarin (7-hydroxylation), 10 µM, Residual CYP2A6 enzyme activity
# T1 sequence (P11509 1-494): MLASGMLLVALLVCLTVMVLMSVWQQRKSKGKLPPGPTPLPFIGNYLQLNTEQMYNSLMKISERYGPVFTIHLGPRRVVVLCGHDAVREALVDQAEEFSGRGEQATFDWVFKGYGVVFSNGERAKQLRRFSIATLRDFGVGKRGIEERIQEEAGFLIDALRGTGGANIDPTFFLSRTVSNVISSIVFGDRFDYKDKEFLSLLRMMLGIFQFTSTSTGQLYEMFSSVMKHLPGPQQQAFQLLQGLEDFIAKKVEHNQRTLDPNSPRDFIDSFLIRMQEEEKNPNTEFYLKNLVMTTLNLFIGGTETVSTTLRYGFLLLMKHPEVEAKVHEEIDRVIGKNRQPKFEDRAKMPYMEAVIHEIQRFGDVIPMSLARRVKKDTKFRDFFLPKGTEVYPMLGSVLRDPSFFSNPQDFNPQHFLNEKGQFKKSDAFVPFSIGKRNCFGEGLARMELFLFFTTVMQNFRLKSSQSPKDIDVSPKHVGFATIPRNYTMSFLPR
# Method: (§1) The recombinant baculosomes with hyperexpressed cytochromes P450 (1A2, 2A6, 2C8, and 2D6) and coexpressed NADPH cytochrome P450 reductase and cytochrome b5 were used as a source of enzyme. Baculosomes were commercially obtained from Thermo Fisher Scientific (Waltham, MA, USA), and all other chemicals from Sigma-Aldrich if not otherwise indicated. A 1.0 M solution phosphate buffer of pH 7.4 was prepared in house. NADPH generating system was prepared of 0.1 M glucose-6-phosphate, 10 mg mL^−1 NADP^+, and 1000 IU mL^−1 glucose-6-phosphate dehydrogenase in ratio 100:50:2 (v/v/v).
# The aromatic hydroxylation of coumarin at the position 7 was used as a marker reaction for CYP2A6. The incubation conditions were the same as for CYP1A2 enzyme (vide supra) unless otherwise stated. The final concentration of coumarin was 10 µM, while the incubation time was extended to 30 min.
# HPLC-DAD analysis was conducted on the same system as the CYP1A2 enzyme with the following modifications: The gradient timetable (t/min, %B) was (0, 20), (1.5, 20), (10, 70), (11, 20), (17, 20), and the detection wavelength was 330 nm. The retention time of the substrate (coumarin) was 7.5 min, while the product (7-hydroxycoumarin) was detected at 4.8 min. The amount of generated product was determined as the area under the curve based on the calibration curve of the standard.
# (§2) Three types of experiments were conducted to determine metabolism dependent inhibition, time dependent inhibition, and direct inhibition of CYP1A2, CYP2A6, CYP2C8, and CYP2D6 enzymes.
# (§3) To determine metabolism dependent inhibition (MDI assay), the flavonoid was first preincubated with the enzyme with the addition of the generating system for 30 min, after which the marker substrate was added to determine residual enzyme activity (as described above for each enzyme).
# (§4) If metabolism dependent inhibition was determined, time dependent inhibition and direct inhibition were tested. Time dependent inhibition (TDI assay) was assessed by preincubating the flavonoid and enzyme, without the generating system, after which residual activity was determined by adding the NADPH generating system along with the substrate (as described above for each enzyme).
# (§5) The direct inhibition assay (DI assay) was conducted without preincubation, i.e., the NADPH generating system was added to the incubation mixture containing flavonoid and substrate following the experimental set-up described above for each individual cytochrome P450 enzyme.
# (§6) Pure time dependent inhibitors require time to interact with the enzyme. Thus, TDI inhibitors will show a reduction of enzyme activity in assays with preincubations, i.e., the MDI and TDI assays, but not in the DI assay (no preincubation). […] DI inhibitors will reduce enzyme activity in all three assays (MDI, TDI, and DI).
# (§7) All incubations were conducted in triplicate. The results are expressed as the residual activity of the enzyme, i.e., the percentage of product generated in incubation with the addition of flavonoid in ratio to the control without flavonoid. The statistical significance was tested with Student’s t-test in the program R (The R Project for Statistical Computing, Vienna, Austria).
# CYP2A6 [2] = details: ref 31 (Boonruanga et al.), cited from earlier work
# CYP2C8 = target: T2, CYP2C8 (Homo sapiens, UniProt P10632); assay: CYP2C8 enzyme activity, paclitaxel 6α-hydroxylation (MDI, TDI, DI assays), recombinant baculosomes; format: biochemical; details: for Inhibition of CYP2C8 paclitaxel 6-α-hydroxylation / CYP2C8 enzyme activity in the TDI assay: 1 µM flavonoid; for Type of CYP2C8 inhibition: concluded from MDI, TDI, DI assays at 1 µM
# T2 construct: purchased Thermo Fisher Scientific; host or cells: baculosomes
# T2 sequence (P10632 1-490): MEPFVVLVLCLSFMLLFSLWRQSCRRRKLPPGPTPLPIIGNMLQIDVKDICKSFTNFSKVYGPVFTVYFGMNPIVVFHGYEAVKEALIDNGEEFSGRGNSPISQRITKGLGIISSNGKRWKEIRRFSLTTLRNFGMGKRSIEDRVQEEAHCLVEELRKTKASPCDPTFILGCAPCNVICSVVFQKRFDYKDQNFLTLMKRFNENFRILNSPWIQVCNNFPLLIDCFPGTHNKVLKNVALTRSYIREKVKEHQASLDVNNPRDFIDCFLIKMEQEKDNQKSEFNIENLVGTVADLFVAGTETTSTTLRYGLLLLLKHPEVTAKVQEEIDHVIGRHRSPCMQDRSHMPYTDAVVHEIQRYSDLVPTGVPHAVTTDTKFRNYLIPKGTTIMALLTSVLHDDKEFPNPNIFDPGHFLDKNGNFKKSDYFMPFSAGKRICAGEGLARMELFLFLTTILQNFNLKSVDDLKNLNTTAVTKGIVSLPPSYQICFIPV
# Method: as §1
# Paclitaxel 6α-hydroxylation was used as a marker reaction for monitoring CYP2C8 enzyme activity (Figure 2). The incubation conditions were the same as for CYP1A2 enzyme (vide supra) unless otherwose stated. The final concentration of paclitaxel was 20 µM, while the incubation time was set to 30 min.
# HPLC-DAD analysis was conducted on the same system as the CYP1A2 enzyme with the following modifications: The gradient timetable (t/min, %B) was (0, 50), (2, 50), (10, 90), (11, 50), (17, 50), and the detection wavelength was 227 nm. […] The amount of generated product was determined as the area under the curve based on the calibration curve of the standard.
# as §2, §3, §4, §5, §6, §7
# CYP1A2 [3] = target: T3, CYP1A2 (Homo sapiens, UniProt P05177); assay: CYP1A2 enzyme activity, phenacetin O-deethylation (MDI, TDI, DI assays), recombinant baculosomes; details: for activity at 15 min, 1 µM: human, pH 7.4, probe phenacetin (O-deethylation), 150 µM
# T3 sequence (P05177 1-516): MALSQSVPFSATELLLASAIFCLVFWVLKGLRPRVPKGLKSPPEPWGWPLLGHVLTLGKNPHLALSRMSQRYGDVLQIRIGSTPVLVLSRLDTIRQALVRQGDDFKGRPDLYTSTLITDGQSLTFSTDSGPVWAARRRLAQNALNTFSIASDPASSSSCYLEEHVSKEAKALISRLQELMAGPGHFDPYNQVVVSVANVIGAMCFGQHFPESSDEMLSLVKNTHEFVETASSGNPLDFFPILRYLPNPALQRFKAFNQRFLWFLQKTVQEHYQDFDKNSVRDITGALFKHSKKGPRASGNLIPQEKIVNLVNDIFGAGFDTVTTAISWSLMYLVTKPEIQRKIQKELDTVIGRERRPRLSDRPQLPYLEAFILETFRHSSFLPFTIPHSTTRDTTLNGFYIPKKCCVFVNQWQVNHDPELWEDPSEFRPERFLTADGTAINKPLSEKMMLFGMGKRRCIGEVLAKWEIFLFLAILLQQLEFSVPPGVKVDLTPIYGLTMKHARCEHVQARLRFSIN
# Method: as §1
# Phenacetine O-deethylation was used as a marker reaction for monitoring CYP1A2 enzyme activity (Figure 2). Incubations of 100 µL were conducted at the temperature of 37 °C. The pH of the incubation mixture was set at 7.4 using a potassium phosphate buffer (final concentration 50 mM). The total amount of CYP1A2 enzyme was 5 pmol, and the final concentration of substrate was 150 µM. Residual activity was determined by incubating the flavonoid (1 µM) with phenacetine as a substrate for 15 min, with or without preincubation, depending of the type of inhibition assay. Reactions were started by the addition of 15 µL of NADPH generating system, while the reactions were stopped by the addition of 1 mL 1% formic acid in acetonitrile. After centrifugation (10 min, 1900× g), the clear solution was transferred to a vial for HPLC analysis.
# HPLC analysis was performed on Agilent 1100 instrument (Santa Clara, CA, USA) coupled with a diode array detector (DAD) on Luna C18 column (4.6 × 150 mm, 3 μm). The gradient method was used for separation. Mobile phase A consisted of water, acetonitrile, and glacial acetic acid in the volume ratio of 90:10:0.1, while mobile phase B contained the same solvents in the ratio 10:90:0.1. The following gradient timetable was used (t/min, %B): (0, 0), (2, 0), (13, 55), (14, 0), (20, 0). The flow rate was 1 mL/min, and chromatograms were recorded at 254 nm. Volume of incubation injected to the column was 15 µL. […] The amount of generated product (acetaminophen) was determined as the area under the curve based on the calibration curve of the standard.
# as §2, §3, §4, §5, §6
# All incubations were conducted in triplicate. The results are expressed as the residual activity of the enzyme, i.e., the percentage of product generated in incubation with the addition of flavonoid in ratio to the control without flavonoid.
# rat liver microsomes = test system: rat liver microsomes; parameters: method as in ref 24 (Siess et al.); details: ref 24 (Siess et al.), cited from earlier work
# CYP1A2 [4] = test system: CYP1A2; parameters: method as in ref 23 (Lee et al.); details: ref 23 (Lee et al.); cited from earlier work
# CYP1A2 [5] = test system: CYP1A2; parameters: method as in ref 25 (Kim et al.); details: recombinant cytochrome P450 system; ref 25 (Kim et al.); cited from earlier work
# [6] = concluded from MDI, TDI, DI assays at 1 µM
structure (smiles),measurement,setting,value
COc1ccc(-c2cc(=O)c3c(O)cc(O)cc3o2)cc1 [acacetin],Inhibition of CYP3A4 metabolic activity,CYP3A4,inhibition
O=c1cc(-c2ccc(O)cc2)oc2cc(O)cc(O)c12 [apigenin],Inhibition of CYP2A6 enzyme activity,CYP2A6 [1],inhibited
same,"activity at 30 min, 1 µM",CYP2A6 [1]; direct inhibition (DI) assay,48 ± 1%
same,"activity at 30 min, 1 µM","CYP2A6 [1]; metabolism dependent inhibition (MDI) assay, coumarin 10 µM",47 ± 7%
same,IC50,"CYP2A6 [2]; read-out: IC50, direct inhibition assay",900 ± 70 nM
same,IC50,"CYP2A6 [2]; read-out: IC50, metabolism dependent inhibition assay",770 ± 160 nM
COc1cc(OC)c2c(=O)cc(-c3ccccc3)oc2c1 [chrysin-dimethylether],Inhibition of CYP2C8 paclitaxel 6-α-hydroxylation,CYP2C8,inhibition
same,CYP2C8 enzyme activity in the TDI assay,CYP2C8,reduction of enzyme activity was not observed
same,Type of CYP2C8 inhibition,CYP2C8,mixed reversible and irreversible inhibitors
same,Inhibition of CYP3A4 metabolic activity,CYP3A4,inhibition
O=c1cc(-c2ccccc2)oc2cc(O)cc(O)c12 [chrysin],Inhibition of CYP1A2 activity,CYP1A2 [3]; 1 µM flavonoid,inhibited
same,"Residual CYP1A2 enzyme activity, time dependent inhibition (TDI) assay","CYP1A2 [3]; 1 µM flavonoid, preincubation without generating system",complete inhibition
same,Type of CYP1A2 inhibition,CYP1A2 [3]; [6],reversible
same,"activity at 15 min, 1 µM",CYP1A2 [3],18 ± 4%
same,"activity at 15 min, 1 µM","CYP1A2 [3]; Residual CYP1A2 enzyme activity, direct inhibition (DI) assay, 1 µM flavonoid, no preincubation",23 ± 6%
same,Inhibition of CYP2C8 paclitaxel 6-α-hydroxylation,CYP2C8,inhibition
same,CYP2C8 enzyme activity in the TDI assay,CYP2C8,reduction of enzyme activity was not observed
same,Type of CYP2C8 inhibition,CYP2C8,mixed reversible and irreversible inhibitors
same,Type of inhibition of ethoxy- and pentoxy-resorufin dealkylation,rat liver microsomes,mix type reversible
same,"Type of CYP1A2 inhibition, N3-demethylation of caffeine",CYP1A2 [4],"reversible, competitive inhibition"
same,"Type of CYP1A2 inhibition, ethoxyresorufin O-deethylation",CYP1A2 [5],reversible mix inhibition
same,Inhibition of CYP3A4 metabolic activity,CYP3A4,inhibition
O=c1cc(-c2ccccc2)oc2ccccc12 [flavone],Inhibition of CYP3A4 metabolic activity,CYP3A4,inhibition
O=c1c(O)c(-c2ccccc2)oc2cc(O)cc(O)c12 [galangin],Inhibition of CYP2A6 enzyme activity,CYP2A6 [1],inhibited
same,Inhibition of CYP2C8 paclitaxel 6-α-hydroxylation,CYP2C8,inhibition
same,CYP2C8 enzyme activity in the TDI assay,CYP2C8,reduction of enzyme activity was not observed
same,Type of CYP2C8 inhibition,CYP2C8,mixed reversible and irreversible inhibitors
same,Inhibition of CYP3A4 metabolic activity,CYP3A4,inhibition
COc1ccc([C@@H]2CC(=O)c3c(O)cc(O)cc3O2)cc1O [hesperetin],Inhibition of CYP3A4 metabolic activity,CYP3A4,inhibition
O=c1c(O)c(-c2ccc(O)cc2O)oc2cc(O)cc(O)c12 [morin],Inhibition of CYP1A2 activity,CYP1A2 [3]; 1 µM flavonoid,inhibited
same,Inhibition constant relative to chrysin,rat liver microsomes; morin versus chrysin,16 fold
same,Ki,"rat liver microsomes; read-out: Inhibition constant, ethoxy- and pentoxy-resorufin dealkylation",5000 nM
same,Type of inhibition of ethoxy- and pentoxy-resorufin dealkylation,rat liver microsomes,mix type reversible
same,Inhibition of CYP3A4 metabolic activity,CYP3A4,inhibition
O=C1C[C@@H](c2ccccc2)Oc2cc(O)cc(O)c21 [pinocembrin],Inhibition of CYP3A4 metabolic activity,CYP3A4,inhibition
COc1ccc(-c2oc3cc(O)cc(O)c3c(=O)c2O)cc1O [tamarixetin],Inhibition of CYP3A4 metabolic activity,CYP3A4,inhibition
COc1ccc(-c2cc(=O)c3c(OC)c(OC)c(OC)c(OC)c3o2)cc1 [tangeretin],Inhibition of CYP2A6 enzyme activity,CYP2A6 [1],inhibited
same,Type of CYP2A6 inhibition,CYP2A6 [1]; [6],direct inhibitor
same,Inhibition of CYP3A4 metabolic activity,CYP3A4,inhibition
